Experiments:
[1] = molecular target: Wee1-like protein kinase (Homo sapiens) (UniProt P30291); assay: Selectivity interaction (KinomeScan (DiscoverX)) EUB0001079a WEE1; conditions: at 1 µM
[2] = molecular target: MAP kinase-activated protein kinase 2 (Homo sapiens, UniProt P49137); conditions: at 10 µM
[3] = molecular target: Casein kinase I isoform gamma-1 (Homo sapiens) (UniProt Q9HCP0); assay: Selectivity interaction (Kinase panel (Invitrogen)) EUB0000639a CSNK1G1; conditions: at 200 nM
[4] = molecular target: Serine/threonine-protein kinase 25 (Homo sapiens) (UniProt O00506); assay: Selectivity interaction (KinomeScan (DiscoverX)) EUB0000595a STK25; conditions: at 10 µM
Sequence of Serine/threonine-protein kinase 25 (Homo sapiens) (O00506 whole entry, looked up): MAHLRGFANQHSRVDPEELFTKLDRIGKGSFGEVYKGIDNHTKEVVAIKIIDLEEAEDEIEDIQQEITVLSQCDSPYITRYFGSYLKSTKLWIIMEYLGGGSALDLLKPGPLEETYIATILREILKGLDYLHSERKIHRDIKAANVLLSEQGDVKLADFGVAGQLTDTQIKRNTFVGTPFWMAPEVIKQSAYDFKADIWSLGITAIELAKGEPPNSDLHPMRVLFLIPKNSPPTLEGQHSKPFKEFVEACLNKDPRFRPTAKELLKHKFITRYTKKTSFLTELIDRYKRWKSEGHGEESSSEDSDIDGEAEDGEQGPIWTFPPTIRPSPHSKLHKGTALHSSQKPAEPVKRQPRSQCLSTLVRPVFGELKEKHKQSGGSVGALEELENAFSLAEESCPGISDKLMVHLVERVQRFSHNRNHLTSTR

[5] = tested on: Tyrosine-protein kinase ABL1 (Homo sapiens), P00519 [Q252H]; assay: Selectivity interaction (KinomeScan (DiscoverX)) EUB0000045b ABL1; conditions: at 1 µM
[6] = molecular target: Mitogen-activated protein kinase 7 (Homo sapiens) (UniProt Q13164); conditions: at 10 µM
Sequence of Mitogen-activated protein kinase 7 (Homo sapiens) (Q13164 2-816 limits assumed): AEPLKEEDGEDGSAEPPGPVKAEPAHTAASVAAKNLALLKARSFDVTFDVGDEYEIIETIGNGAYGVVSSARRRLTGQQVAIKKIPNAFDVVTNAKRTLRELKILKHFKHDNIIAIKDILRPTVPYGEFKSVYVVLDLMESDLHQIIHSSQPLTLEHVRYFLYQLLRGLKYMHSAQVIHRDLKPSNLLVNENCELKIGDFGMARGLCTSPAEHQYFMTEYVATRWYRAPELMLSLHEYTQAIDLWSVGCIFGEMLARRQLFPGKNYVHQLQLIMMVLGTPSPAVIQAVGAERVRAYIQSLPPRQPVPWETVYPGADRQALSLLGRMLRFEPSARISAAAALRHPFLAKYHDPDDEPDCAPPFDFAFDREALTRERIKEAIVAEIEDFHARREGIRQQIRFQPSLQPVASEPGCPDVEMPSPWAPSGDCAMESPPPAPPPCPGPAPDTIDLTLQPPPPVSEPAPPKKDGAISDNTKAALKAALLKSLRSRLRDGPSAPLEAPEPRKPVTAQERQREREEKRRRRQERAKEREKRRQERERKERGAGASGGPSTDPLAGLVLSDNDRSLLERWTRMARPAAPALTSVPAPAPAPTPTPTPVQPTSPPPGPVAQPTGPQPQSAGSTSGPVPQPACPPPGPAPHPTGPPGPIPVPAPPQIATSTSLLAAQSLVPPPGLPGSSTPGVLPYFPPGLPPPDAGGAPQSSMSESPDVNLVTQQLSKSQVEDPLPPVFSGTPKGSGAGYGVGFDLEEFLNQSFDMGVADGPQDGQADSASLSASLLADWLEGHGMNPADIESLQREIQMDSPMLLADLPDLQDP

[7] = molecular target: T1, Mitogen-activated protein kinase kinase kinase kinase 2 (Homo sapiens) (UniProt Q12851); assay: Selectivity interaction (KinomeScan (DiscoverX)) EUB0001619a MAP4K2; conditions: at 1 µM
T1 sequence (whole entry): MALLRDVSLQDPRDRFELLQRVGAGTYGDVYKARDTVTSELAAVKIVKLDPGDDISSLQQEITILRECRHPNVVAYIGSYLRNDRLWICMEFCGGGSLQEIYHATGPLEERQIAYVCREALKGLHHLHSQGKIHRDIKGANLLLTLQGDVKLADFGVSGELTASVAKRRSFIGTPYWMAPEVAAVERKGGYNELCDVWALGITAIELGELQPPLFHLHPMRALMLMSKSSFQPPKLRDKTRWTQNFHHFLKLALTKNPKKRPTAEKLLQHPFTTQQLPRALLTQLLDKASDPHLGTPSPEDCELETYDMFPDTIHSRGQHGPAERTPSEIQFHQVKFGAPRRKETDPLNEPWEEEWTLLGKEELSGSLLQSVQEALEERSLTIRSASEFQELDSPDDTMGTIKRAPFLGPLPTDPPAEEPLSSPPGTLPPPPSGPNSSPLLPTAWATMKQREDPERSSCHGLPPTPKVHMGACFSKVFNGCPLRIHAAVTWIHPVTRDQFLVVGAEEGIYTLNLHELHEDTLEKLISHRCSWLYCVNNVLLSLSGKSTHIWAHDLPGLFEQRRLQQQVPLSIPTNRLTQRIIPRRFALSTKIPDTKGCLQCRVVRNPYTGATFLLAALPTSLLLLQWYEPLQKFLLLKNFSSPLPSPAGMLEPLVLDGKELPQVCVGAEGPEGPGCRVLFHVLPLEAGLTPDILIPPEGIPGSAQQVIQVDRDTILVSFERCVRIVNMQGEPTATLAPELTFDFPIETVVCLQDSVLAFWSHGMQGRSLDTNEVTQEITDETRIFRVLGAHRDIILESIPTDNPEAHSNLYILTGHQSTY

[8] = molecular target: Serine/threonine-protein kinase SIK3 (Homo sapiens) (UniProt Q9Y2K2); assay: Selectivity interaction (KinomeScan (DiscoverX)) EUB0000695a SIK3; conditions: at 100 nM
Sequence of Serine/threonine-protein kinase SIK3 (Homo sapiens) (Q9Y2K2 whole entry, looked up): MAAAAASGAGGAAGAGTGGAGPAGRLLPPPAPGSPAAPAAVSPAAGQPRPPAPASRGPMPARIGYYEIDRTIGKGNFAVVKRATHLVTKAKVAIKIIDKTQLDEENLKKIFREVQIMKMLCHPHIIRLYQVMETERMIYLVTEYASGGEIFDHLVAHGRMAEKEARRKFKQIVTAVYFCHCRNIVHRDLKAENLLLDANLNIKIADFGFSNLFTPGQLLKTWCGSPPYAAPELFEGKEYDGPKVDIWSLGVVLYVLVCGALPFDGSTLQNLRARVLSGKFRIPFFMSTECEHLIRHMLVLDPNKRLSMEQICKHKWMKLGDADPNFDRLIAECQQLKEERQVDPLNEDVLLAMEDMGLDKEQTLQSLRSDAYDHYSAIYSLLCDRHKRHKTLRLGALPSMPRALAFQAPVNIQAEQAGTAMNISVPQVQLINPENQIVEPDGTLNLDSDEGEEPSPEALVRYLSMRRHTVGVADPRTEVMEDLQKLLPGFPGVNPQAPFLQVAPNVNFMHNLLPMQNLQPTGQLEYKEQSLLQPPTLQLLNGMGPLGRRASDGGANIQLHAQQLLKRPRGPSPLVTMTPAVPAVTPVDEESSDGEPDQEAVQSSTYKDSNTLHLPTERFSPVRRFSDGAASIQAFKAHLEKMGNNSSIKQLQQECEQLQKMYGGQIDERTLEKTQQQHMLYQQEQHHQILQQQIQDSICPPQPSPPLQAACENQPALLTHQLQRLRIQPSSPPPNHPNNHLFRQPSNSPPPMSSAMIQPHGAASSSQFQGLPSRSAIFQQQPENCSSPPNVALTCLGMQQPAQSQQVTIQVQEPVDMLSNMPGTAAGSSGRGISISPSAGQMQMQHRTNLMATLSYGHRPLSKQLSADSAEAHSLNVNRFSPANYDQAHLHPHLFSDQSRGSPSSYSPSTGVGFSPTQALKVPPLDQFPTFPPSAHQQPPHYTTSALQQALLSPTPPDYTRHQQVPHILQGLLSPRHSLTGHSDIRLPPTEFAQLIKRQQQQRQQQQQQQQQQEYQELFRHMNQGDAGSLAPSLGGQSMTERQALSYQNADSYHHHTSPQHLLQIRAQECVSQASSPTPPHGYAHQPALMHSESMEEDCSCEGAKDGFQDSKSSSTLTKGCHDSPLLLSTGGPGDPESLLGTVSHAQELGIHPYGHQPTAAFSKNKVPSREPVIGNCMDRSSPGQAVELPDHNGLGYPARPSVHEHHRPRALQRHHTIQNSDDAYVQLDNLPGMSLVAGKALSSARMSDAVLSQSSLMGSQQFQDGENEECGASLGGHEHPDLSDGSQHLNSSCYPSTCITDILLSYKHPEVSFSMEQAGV

[9] = molecular target: Dual specificity testis-specific protein kinase 1 (Homo sapiens) (UniProt Q15569); assay: Selectivity interaction (KinomeScan (DiscoverX)) EUB0000695a TESK1; conditions: at 100 nM
Sequence of Dual specificity testis-specific protein kinase 1 (Homo sapiens) (Q15569 whole entry, looked up): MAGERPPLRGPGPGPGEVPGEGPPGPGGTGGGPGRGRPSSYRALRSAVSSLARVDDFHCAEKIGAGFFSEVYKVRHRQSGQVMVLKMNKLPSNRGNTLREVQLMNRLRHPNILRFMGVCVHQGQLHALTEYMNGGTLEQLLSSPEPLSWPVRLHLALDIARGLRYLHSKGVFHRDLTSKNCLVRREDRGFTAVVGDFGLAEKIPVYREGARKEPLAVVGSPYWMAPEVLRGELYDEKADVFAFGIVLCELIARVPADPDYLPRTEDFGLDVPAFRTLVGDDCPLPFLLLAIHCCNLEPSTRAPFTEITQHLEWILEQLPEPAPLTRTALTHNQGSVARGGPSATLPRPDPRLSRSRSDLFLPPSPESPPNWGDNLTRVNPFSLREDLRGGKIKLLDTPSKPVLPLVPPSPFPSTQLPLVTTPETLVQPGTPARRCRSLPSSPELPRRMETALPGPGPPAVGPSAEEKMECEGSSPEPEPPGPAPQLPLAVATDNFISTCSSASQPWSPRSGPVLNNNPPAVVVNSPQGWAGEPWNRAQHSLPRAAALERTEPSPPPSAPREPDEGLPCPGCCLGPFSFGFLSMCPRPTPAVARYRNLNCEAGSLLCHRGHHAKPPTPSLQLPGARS

[10] = molecular target: T2, Non-receptor tyrosine-protein kinase TNK1 (Homo sapiens) (UniProt Q13470); assay: Selectivity interaction (KinomeScan (DiscoverX)) EUB0000695a TNK1; conditions: at 100 nM
T2 sequence (whole entry): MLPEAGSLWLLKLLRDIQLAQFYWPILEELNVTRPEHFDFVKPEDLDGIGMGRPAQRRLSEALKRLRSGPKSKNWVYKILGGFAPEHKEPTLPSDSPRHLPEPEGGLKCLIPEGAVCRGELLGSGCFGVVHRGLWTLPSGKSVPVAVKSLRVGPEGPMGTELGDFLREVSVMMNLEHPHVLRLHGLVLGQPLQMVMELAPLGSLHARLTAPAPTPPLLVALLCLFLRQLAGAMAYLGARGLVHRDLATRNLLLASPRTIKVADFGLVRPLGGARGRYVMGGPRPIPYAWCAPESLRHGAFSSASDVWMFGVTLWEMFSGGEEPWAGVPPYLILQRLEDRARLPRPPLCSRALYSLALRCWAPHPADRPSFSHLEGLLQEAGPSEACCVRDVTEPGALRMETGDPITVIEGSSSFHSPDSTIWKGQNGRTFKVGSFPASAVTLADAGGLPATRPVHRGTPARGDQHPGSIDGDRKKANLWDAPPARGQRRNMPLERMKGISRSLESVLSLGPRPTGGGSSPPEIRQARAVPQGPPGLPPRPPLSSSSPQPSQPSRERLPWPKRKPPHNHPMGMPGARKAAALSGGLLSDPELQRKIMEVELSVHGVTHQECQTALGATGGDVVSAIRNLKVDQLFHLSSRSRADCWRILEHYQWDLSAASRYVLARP

[11] = molecular target: T3, 5-hydroxytryptamine receptor 3A (Homo sapiens) (UniProt P46098); assay: Selectivity interaction (Panel of kinases, GPCRs, ion channels and transporters (enzymatic assay)) EUB0000266bCl HTR3A
T3 sequence (whole entry): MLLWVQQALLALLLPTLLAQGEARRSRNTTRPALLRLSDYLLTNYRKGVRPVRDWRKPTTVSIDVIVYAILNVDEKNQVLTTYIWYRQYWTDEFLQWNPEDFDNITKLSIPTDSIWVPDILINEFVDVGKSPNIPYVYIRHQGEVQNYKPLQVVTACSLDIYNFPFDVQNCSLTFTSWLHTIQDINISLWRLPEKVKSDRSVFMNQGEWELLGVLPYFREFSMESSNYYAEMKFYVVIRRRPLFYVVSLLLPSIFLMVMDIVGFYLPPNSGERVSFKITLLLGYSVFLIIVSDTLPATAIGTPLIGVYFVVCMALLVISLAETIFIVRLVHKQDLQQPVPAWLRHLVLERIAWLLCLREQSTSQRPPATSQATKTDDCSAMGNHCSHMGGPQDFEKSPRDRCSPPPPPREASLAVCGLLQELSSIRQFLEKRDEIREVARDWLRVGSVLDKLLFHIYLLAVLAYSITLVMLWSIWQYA

[12] = molecular target: Mitogen-activated protein kinase 3 (Homo sapiens, UniProt P27361); assay: Selectivity interaction (Rxn Biology Kinase assay) EUB0001632a MAPK3; conditions: at 10 µM
Sequence of Mitogen-activated protein kinase 3 (P27361 whole entry): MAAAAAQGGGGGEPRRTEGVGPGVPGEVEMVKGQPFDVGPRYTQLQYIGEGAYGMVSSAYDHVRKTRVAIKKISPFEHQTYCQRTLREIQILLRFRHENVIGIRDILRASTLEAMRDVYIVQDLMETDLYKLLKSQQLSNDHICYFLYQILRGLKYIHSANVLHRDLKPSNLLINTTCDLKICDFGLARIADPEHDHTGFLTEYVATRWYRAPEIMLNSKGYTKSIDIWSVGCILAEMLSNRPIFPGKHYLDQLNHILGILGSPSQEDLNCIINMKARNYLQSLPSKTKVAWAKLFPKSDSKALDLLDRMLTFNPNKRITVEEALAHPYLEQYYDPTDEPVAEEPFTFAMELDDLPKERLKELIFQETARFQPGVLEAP

Sequence of MAP kinase-activated protein kinase 2 (P49137 whole entry, looked up, canonical isoform): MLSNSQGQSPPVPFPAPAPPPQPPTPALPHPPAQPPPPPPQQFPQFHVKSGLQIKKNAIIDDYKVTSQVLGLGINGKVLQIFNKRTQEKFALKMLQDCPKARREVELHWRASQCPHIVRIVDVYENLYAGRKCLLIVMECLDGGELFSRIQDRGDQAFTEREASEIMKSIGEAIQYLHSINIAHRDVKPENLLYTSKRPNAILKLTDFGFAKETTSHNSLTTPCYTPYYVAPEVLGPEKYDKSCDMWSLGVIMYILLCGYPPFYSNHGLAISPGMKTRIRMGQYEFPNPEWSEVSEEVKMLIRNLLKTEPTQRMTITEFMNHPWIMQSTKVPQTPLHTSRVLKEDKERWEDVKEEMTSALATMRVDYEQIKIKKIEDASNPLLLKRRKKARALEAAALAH
Sequence of Wee1-like protein kinase (Homo sapiens) (P30291 whole entry, looked up): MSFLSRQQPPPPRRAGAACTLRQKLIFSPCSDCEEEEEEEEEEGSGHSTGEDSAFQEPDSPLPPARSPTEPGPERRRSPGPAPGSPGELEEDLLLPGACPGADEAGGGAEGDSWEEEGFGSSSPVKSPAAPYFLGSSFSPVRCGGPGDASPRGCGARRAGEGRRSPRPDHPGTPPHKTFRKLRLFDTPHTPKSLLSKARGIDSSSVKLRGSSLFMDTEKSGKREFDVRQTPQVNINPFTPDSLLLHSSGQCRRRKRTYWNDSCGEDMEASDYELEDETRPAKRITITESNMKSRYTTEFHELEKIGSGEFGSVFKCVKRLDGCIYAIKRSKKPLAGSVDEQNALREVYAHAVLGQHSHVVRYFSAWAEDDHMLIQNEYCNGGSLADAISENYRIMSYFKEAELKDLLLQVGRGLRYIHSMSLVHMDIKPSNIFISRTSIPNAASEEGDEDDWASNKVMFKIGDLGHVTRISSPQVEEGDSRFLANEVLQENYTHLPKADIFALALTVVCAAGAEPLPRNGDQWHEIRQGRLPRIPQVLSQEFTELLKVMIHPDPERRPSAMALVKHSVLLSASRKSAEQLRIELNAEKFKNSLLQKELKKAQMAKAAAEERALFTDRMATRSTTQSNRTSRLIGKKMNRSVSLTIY
Sequence of Casein kinase I isoform gamma-1 (Homo sapiens) (Q9HCP0 whole entry, looked up, canonical isoform): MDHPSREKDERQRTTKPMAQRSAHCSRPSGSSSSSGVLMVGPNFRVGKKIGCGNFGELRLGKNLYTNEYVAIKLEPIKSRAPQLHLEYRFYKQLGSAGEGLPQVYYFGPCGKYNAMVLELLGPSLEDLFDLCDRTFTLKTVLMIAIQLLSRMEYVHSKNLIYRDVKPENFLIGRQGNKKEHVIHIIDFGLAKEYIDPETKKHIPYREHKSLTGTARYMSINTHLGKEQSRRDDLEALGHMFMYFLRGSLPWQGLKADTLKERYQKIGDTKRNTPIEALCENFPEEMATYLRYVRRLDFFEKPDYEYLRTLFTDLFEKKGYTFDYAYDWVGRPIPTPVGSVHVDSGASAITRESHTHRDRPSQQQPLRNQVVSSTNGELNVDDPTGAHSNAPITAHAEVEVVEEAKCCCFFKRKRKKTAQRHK

SMILES: Nc1cnc(N2CCc3cc(S(=O)(=O)Nc4c(F)cc(Cl)cc4F)cc(N4CCCC4=O)c32)nc1 [TP-020n]
- % of control [1]: 72%

SMILES: CCN(CC)CCCCNc1ncc2cc(-c3cc(OC)cc(OC)c3)c(NC(=O)NC(C)(C)C)nc2n1
- % of control [2]: 100%

SMILES: CC[C@@H]1[C@H](F)C(=O)N[C@@H]1COc1nccc2cc(C(N)=O)c(OC)cc12 [ZIMLOVISERTIB]
- % of inhibition [3]: 69.1%

SMILES: COCC(=O)NC/C=C/c1ccc2ncnc(Nc3ccc(Oc4ccc(C)nc4)c(C)c3)c2c1 [CP-724714]
- % of control [4]: 94%

SMILES: C=CC(=O)Nc1cc(-n2c(=O)ccc3cnc4ccc(-c5ccc(NS(C)(=O)=O)cc5)cc4c32)ccc1C
- % of control [5]: 95%

SMILES: Cc1cc([C@@H](C)Nc2ccccc2C(=O)O)c2nc(N3CCOCC3)cc(=O)n2c1 [AZD-6482]
- % of control [6]: 100%

SMILES: N#Cc1cccc(-c2c[nH]c3ncnc(N4CCOCC4)c23)c1
- % of control [7]: 3.4%

SMILES: Cc1cc(F)c(C(=O)Nc2cccc(-c3nncn3C(C)C)n2)cc1-n1cnc(C2CC2)c1
- % of control [8]: 100%
- % of control [9]: 85%
- % of control [10]: 100%

SMILES: CCn1c(-c2nc3cc(C(=O)N4CCCC(N)C4)ccc3n2C)cc2ccccc21 (configuration not stated)
- pXC50 [11]: 5.6 M

SMILES: Cn1cc(-n2cnc3c(NCc4nc5cc(Cl)c(Cl)cc5[nH]4)nc(N4CCOCC4)nc32)cn1
- % of inhibition [12]: -5.84%

Reference: ChEMBL document CHEMBL5465560, “Selectivity Literature for EUbOPEN Chemogenomic Library” (2024)
